# Measured values reported in patent US7169568B2, “Method for screening molecules that exert a neurotrophic effect through activation of neurotrophin receptors” (New York University, priority 2000, dated 2007).
# What was measured:
# [1] = tested on: TrkA receptors; assay: TrkA receptor tyrosine phosphorylation in PC12 (615) cells (anti-pan-Trk immunoprecipitation, PY99 anti-phosphotyrosine immunoblot); format: cell-based
# Procedure: Stably transfected PC12 cells expressing high levels of TrkA (615) were treated with the indicated compounds for 2 hours. The cells were subsequently harvested in lysis buffer as described in the Materials and Methods of Example 1. Lysates were immunoprecipitated with anti-pan Trk rabbit antiserum. Immunocomplexes were analyzed by immunoblotting with anti-phosphotyrosine antibody (PY99).
# In FIG. 2A, different concentrations of adenosine were administered to PC12615 cells for 2 hours or NGF (1 ng/ ml) for 10 min. Cells were also treated with CGS21680 at the indicated dose for 2 hours. In FIG. 2B, PC12 cells (615) were treated with adenosine (10 μM) for various times or with 5 ng/ml NGF for 10 min. Phosphorylated TrkA receptors were detected by immunoblot analysis using PY99 anti-phosphotyrosine antibodies. The amount of Trk receptors in each condition was verified by immunoblotting.
# In FIG. 3A, PC12 cells (615) were treated with the A2A agonist CGS 21680 (10 nM) and an A1 agonist CPA (10 nM) for 2 hr. ZM 241385 (10 nM), an A2A antagonist, was incubated with the cells for 15 min prior to treatment with adenosine (10 μM) for 2 hours. In FIG. 3B, PC12 cells (615) were incubated with the indicated concentrations of PP1, a Src family kinase inhibitor (Hanke et al, 1996), for 30 min, and then treated with adenosine (10 μM) for 2 hours. Activation of TrkA was assessed by immunoprecipitation and immunoblot analysis using PY99 anti-phosphotyrosine antibody.
# In FIG. 7A, different concentrations of PACAP27 were administered to PC12 (615) cells for 2 hours or NGF (5 ng/ml) for 10 min. […] Phosphorylated TrkA receptors were detected by immunoblot analysis using PY99 anti-phosphotyrosine antibodies. The level of Trk receptors for each condition was verified by immunoblotting with anti-Trk antibodies.
# (§1) Immunoprotection and Immunoblotting. PC12 cells or PC12-615 cells (Hempstead et al, 1992), were maintained in Dulbecco's Modified Eagle's Medium (DMEM) containing 10% fetal bovine serum (FBS) supplemented with 100 units/ml penicillin, 100 μg/ml streptomycin, and 2 mM glutamine plus 200 μg/ml G418. Cells were placed in low serum medium (1% FBS, 0.5% horse serum) overnight prior to experiments. Cell lysates from PC12, 615 cells, or hippocampal cells were incubated in lysis buffer (1% NP40) for 4 hours to overnight at 4° C. with anti-pan-Trk polyclonal antibody, followed by incubation with protein A-Sepharose beads. Equivalent amounts of protein were analyzed for each condition. The beads' were washed five times with lysis buffer and the immune complexes were boiled in SDS-sample buffer and loaded on sodium dodecyl sulfate-polyacrylamide electrophoresis (SDS-PAGE) gels for immunoblot analysis. The immunoreactive protein bands were detected by ECL reagents based upon enhanced chemiluminescence procedure (Amersham Pharmacia).
# Immunoprecipitated and Immunoblotting. PC12 (615) cells were maintained in DMEM containing 10% FBS supplemented with 100 units/ml penicillin, 100 μg/ml streptomycin, and 2 mM glutamine plus 200 μg/ml G418. Cells were placed in serum free medium overnight before experiments. Cell lysates from PC12(615) cells, or basal forebrain cells were incubated in lysis buffer (1% Nonidet P-40) for 4 hrs to overnight at 4° C. with anti-pan-Trk polyclonal antibody followed by incubation with protein A-Sepharose beads. Equivalent amounts of protein were analyzed for each condition.
# [2] = tested on: TrkB receptors; assay: Trk receptor phosphorylation in primary E17 hippocampal neurons (immunoprecipitation, anti-phosphotyrosine Western blot); format: cell-based, rat; details: 10 nM, two hours
# Procedure: FIGS. 4A and 4B show Western blots on adenosine activation of Trk receptors in hippocampal neurons. Primary cultures of E17 hippocampal neurons were prepared as described in the Materials and Methods of Example 1 and treated with (FIG. 4A) CGS 21680 (10 nM) or BDNF (1 ng/ml) for various times and (FIG. 4B) either adenosine (10 μM), CGS 21680 (10 nM), CPA (10 nM) or BDNF (10 ng/ml) for 2 hr. Activation of TrkA receptors was assessed by immunoprecipitation and Western blotting with anti-phosphotyrosine antibody.
# as §1
# Hippocampal Cell Cultures. Dissociated primary cultures of hippocampal neurons from embryonic day 17 (E17) rats were prepared from timed-pregnant Sprague-Dawley rats as described previously (Aibel et al, 1998). Fetuses were removed under sterile conditions and kept in PBS on ice for microscopic dissection of the hippocampus. The meninges were removed and the tissue was placed in Neurobasal media (Gibco BRL). […] Cells were counted and then plated on culture wells coated with 0.01 mg/ml poly-D-lysine overnight. […]
# [3] = tested on: MAP kinase; assay: MAP kinase activation in PC12 cells (anti-phospho MAP kinase immunoblot); format: cell-based; details: K252a at concentrations that block TrkA signaling (100 nM)
# Procedure: as §1, with “PC12 cells (615) were treated with adenosine (10 μM) for various times in the presence or absence of […] (100 nM) or LY294002 (10 μM). The cells were subsequently harvested in lysis buffer; lysates and immunoprecipitated samples were subsequently immunoblotted with anti-phospho MAP kinase, anti-phospho Akt, and anti-phosphotyrosine. Reprobing with anti-MAP kinase and anti-pan-Trk antibodies was carried out to ensure equal protein loading. Immunoprotection” for “Immunoprotection”, “The beads' were washed five times with lysis buffer and the immune complexes were boiled in SDS-sample buffer and loaded on sodium dodecyl sulfate-polyacrylamide electrophoresis (SDS-PAGE) gels for immunoblot analysis.” left out
# [4] = tested on: NGF-differentiated PC12 cells; assay: Cell death assay (LDH release), NGF-differentiated PC12 cells after NGF and serum withdrawal; format: cell-based
# Procedure: (§2) FIGS. 6A and 6B show graphs on the trophic effects of adenosine in PC12 and hippocampal cells deprived of neurotrophins. In FIG. 6A, NGF-differentiated PC12 cells were prepared and then NGF and serum were withdrawn for 48 hours as described in the Materials and Methods section of Example 1. Upon NGF withdrawal, various concentrations of CGS 21680 (CGS) were added to the media. CON =No Addition. […] In FIG. 6B, hippocampal neurons were prepared and B27 was withdrawn for 48 hrs as described in the Materials and Methods section of Example 1. Upon B27 withdrawal, various concentrations of CGS 21680 (CGS) were added to the media. […] All LDH levels were quantitated and % cell death calculated as described in the Materials and Methods section of Example 1. All bars depict mean+SEM from three independent experiments.
# Cell Death Assay. PC12 cells were differentiated in Dulbecco's modified Eagle's medium (DMEM), supplemented with 0.33% fetal bovine serum, 0.67% heat-inactivated horse serum, 2 mM L-glutamine and NGF (50 ng/ml) for 7 days. Serum and NGF were then removed, and adenosine agonists or growth factors added to the media. After 48 hrs, cell death was quantified by measuring lactate dehydrogenase (LDH) released from injured cells into the media using the Cytox 96 Cytotoxicity Assay Kit (Promega, Madison, Wis.). LDH values were normalized by subtracting the LDH released by cells maintained in NGF (50 ng/ml) and scaling to a full kill (=100%) reference induced by 5 min treatment with 1% Triton, an exposure that consistently killed all PC12 cells.
# [5] = tested on: Akt; assay: Akt activation in PC12 cells (anti-phospho Akt immunoblot); format: cell-based
# Procedure: as §1, with “PC12 cells (615) were treated with adenosine (10 μM) for various times in the presence or absence of […] (100 nM) or LY294002 (10 μM). The cells were subsequently harvested in lysis buffer; lysates and immunoprecipitated samples were subsequently immunoblotted with anti-phospho MAP kinase, anti-phospho Akt, and anti-phosphotyrosine. Reprobing with anti-MAP kinase and anti-pan-Trk antibodies was carried out to ensure equal protein loading. To assess the activity of Akt, endogenous Akt can be immunoprecipitated from lysates with anti-Akt and the proteins assayed in Western blots with anti-phospho-Akt antibodies. Use of the anti-Akt antibody versus the anti-phospho-Akt antibody on lysates can give a comparative assessment of the relative level of the enzyme and extent of activation (Kim et al., 2001). […]” for “Immunoprotection”
# [6] = tested on: hippocampal neurons; assay: Cell death assay (LDH release), hippocampal neurons after B27 withdrawal; format: cell-based, rat; details: 100 nM, with CGS 21680 (10 nM) upon B27 withdrawal
# Procedure: as §2, with “.” for “FIGS. 6A and 6B show graphs on the trophic effects of adenosine in PC12 and hippocampal cells deprived of neurotrophins.”
# Hippocampal Cell Cultures. Dissociated primary cultures of hippocampal neurons from embryonic day 17 (E17) rats were prepared from timed-pregnant Sprague-Dawley rats as described previously (Aibel et al, 1998). Fetuses were removed under sterile conditions and kept in PBS on ice for microscopic dissection of the hippocampus. The meninges were removed and the tissue was placed in Neurobasal media (Gibco BRL). The tissue was briefly minced with fine forceps and then triturated with a fire polished pasteur pipet. Cells were counted and then plated on culture wells coated with 0.01 mg/ml poly-D-lysine overnight. Hippocampal cells were maintained in Neurobasal media, containing B27 supplement and L-glutamine (0.5 mM). Experiments were conducted 7–10 days after plating.
# Hippocampal neurons were maintained in Neurobasal media containing B27 supplement and 0.5 mM L-glutamine for 10 days. B27 was then removed, and adenosine agonists or BDNF (100 ng/ml) was added to the media. MK-801 (1 μM) was added to all conditions, to decrease the contribution of NMDA-mediated cell death. After 48 hrs, cell death was assessed by measurement of LDH released into media.
compound,measurement,setting,value
"OC[C@H]1O[C@@H](n2cnc3c(NC4CCCC4)ncnc32)[C@H](O)[C@@H]1O [CPA, N(6)-cyclopentyladenosine]",Increase in phosphorylated TrkA receptors,"[1]; PC12 (615) cells, 10 nM, 2 hr",no effect
same,Phosphorylation of TrkB receptors,[2],did not activate TrkB receptors
COC(=O)[C@@]1(O)C[C@H]2O[C@]1(C)n1c3ccccc3c3c4c(c5c6ccccc6n2c5c31)C(=O)NC4 [K252a],Effect on MAP kinase activity induced by adenosine,[3],not altered
same,Effect on survival effect of CGS 21680,"[4]; 100 nM, with CGS 21680 (10 nM) upon NGF withdrawal",eliminated the positive effects of CGS 21680
same,Effect on survival effects of NGF,"[4]; 100 nM, with NGF (50 ng/ml)",reversed the survival effects of NGF
same,Effect on Akt activation by adenosine,[5]; pretreatment 100 nM,eliminated
same,Effect on survival action of CGS 21680,[6],K-252a sensitive
COc1cccc(-c2cc(=O)c3ccccc3o2)c1N [PD98059],Effect on survival imparted by CGS 21680,"[4]; 25 μM, with CGS 21680 (10 nM)",not found to have any effect
Cc1ccc(-c2nn(C(C)(C)C)c3ncnc(N)c23)cc1 [PP1],Effect on level of tyrosine phosphorylated TrkA receptors elicited by adenosine,"[1]; 1 μM, 30 min, then adenosine (10 μM) for 2 hours",marked decrease
same,"Effect on tyrosine phosphorylated TrkA receptors elicited by adenosine, concentration dependence","[1]; increasing concentrations, then adenosine (10 μM) for 2 hours",progressively stronger inhibition
"Nc1nc(NCCc2ccc(O)cc2)nc2nc(-c3ccco3)nn12 [ZM 241385, 4-[2-[7-amino-2-(2-furyl)-1,2,4-triazolo[1,5-a](1,3,5)triazin-5-ylamino]ethyl]phenol]",Effect on adenosine-induced phosphorylation of TrkA receptors,"[1]; 10 nM, 15 min prior to adenosine (10 μM) for 2 hours",antagonized the effects of adenosine
CN1CCc2cccc3c2[C@H]1Cc1ccc(O)c(O)c1-3 [apomorphine],Activation of TrkA receptors (tyrosine phosphorylation),"[1]; PC12 (615) cells, ligand for 2 hours, adenosine 10 μM",not observed
Pituitary adenylate cyclase activating polypeptide [PACAP],Concentration range of the effect upon TrkA receptor activity,"[1]; PC12 (615) cells, 2 hours",low nanomolar concentration range
same,Time required for increase in TrkA activation,"[1]; PC12 (615) cells, PACAP27 1 nM",2 h
same,Akt activity,"[5]; PC12 cells, PACAP treatment",stimulated
